Data published in PubChem BioAssay AID743396 (Broad Institute, 2014).
“And” between values parts separate entries of the source, which are not always exact repeats. Equal values may be shown once. The source made the active and inactive calls.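 Rule for the calls: active = fitted curve reaches a 40% rise in fluorescent cells at or below the top valid dose; inactive = opposite-direction effect, or the rest.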

System: mTEFS fibroblasts autofluorescence, GFP-channel imaging, 3 days
Experiment: compound fluorescence in GFP channel, mTEFS cells – imaging, mTEFS fibroblasts, cherry-pick, artefact control for X-chromosome reactivation project, dose response (AID 743396)
Conditions: not given

| SMILES | AC40 |
| --- | --- |
| CC1=CC(=Cc2sc3ccccc3[n+]2C)C=C(C)O1 | > 19.5 µM (inactive) |

Same assay, conditions: cells pretreated with 5-aza-dC

| SMILES | AC40 |
| --- | --- |
| CC(=O)Nc1cc2c3c(cccc3c1)-c1ccccc1-2 | 2.19 µM |
| Cc1cc(C)cc(NC(=O)/C=C/c2ccc([N+](=O)[O-])s2)c1 | 9.04 µM |
| Cc1nnc(N2C(=O)c3cccc4c([N+](=O)[O-])ccc(c34)C2=O)s1 | > 19.5 µM (inactive) |
| N#C/C(=C/c1ccc(N2CCCCC2)o1)C(=O)NCCc1c[nH]c2ccccc12 | 5.61 µM |
| CCN1/C(=C\c2ccc3cc(C)ccc3[n+]2CC)Sc2cc(C)c(C)cc21 | 15.7 µM |
| C=CCN1C(=O)[C@@H]2Cc3c([nH]c4ccccc34)C(c3cc(OC)c(OC)c(OC)c3)N2C1=S (stereo not given in full) | 15.5 µM |
| COc1cc2c3nnc(-c4ccc(F)cc4)c-3cn(Cc3cccc(C)c3)c2cc1OC | 3.63 µM |
| COc1ccc(C(=O)c2sc3nc(C)cc(-c4cccs4)c3c2N)cc1OC | 16.3 µM |
| C/C(CC(=O)Nc1ccc(C)c(Cl)c1)=N\NC(=O)Cc1ccccc1 | 18.1 µM |
| CCCCCC[n+]1ccccc1/C=C/c1ccc(N(C)C)cc1 | > 19.5 µM (inactive) |
| COc1ccc2nc(C)cc(NCc3ccc(F)cc3)c2c1 | 4.85 µM |
| COc1ccccc1-[n+]1c(C)cc(/C=C2\Sc3ccccc3N2C)cc1C | 3.52 µM |
| Cc1ccccc1-c1ccc(C2[C@@H]3CN(Cc4cocn4)C[C@H]2N3)cc1 (stereo not given in full) | > 2.35 µM (inactive) |
| COc1cc(N2CCCC2)c(OC)cc1/C=C1/NC(=S)NC1=O | > 19.5 µM (inactive) |
| CCN(CC)c1ccc(/C=C/c2cc(-c3ccccc3)c3ccccc3n2)cc1 | 12.8 µM |
| CCOC(=O)C1=C(O)/C(=C/c2cc(OC)c(O)c(OC)c2)SC1=Nc1ccc(OC)cc1 | > 19.5 µM (inactive) |
| CCN(CC)c1ccc2cc(C(=O)c3cccs3)c(=O)oc2c1 | 11.3 µM |
| Nc1c(Br)cc2c3c(cccc13)-c1ccccc1-2 | > 19.5 µM (inactive) |
| N#CC(C#N)=C1C=C2C=C(N3CCCCCC3)CCC2CC1 (stereo not given) | 6.6 µM |
| COc1ccc2c(n1)Sc1nc3ccccc3nc1N2 | 12.5 µM |
| COc1ccc(C(=O)Nc2c(F)c(F)c(F)c(F)c2F)cc1OC | > 19.5 µM (inactive) |
| CC(C)(C)NC(=S)N/N=C\c1ccc(-c2ccc([N+](=O)[O-])cc2)o1 | 7.84 µM |
| CC(=O)[C@@]1(O)Cc2c(O)c3c(c(O)c2[C@H](O[C@H]2C[C@H](N)[C@H](O)[C@H](C)O2)C1)C(=O)c1ccccc1C3=O | > 2.1 µM (inactive) |
| NC(=O)c1c(NC(=O)c2ccccc2)sc2c1CCN(Cc1ccccc1)C2 | > 19.5 µM (inactive) |
| O=S(=O)(Nc1cc2nc3ccccc3nc2n1Cc1ccccc1)c1ccc(Cl)cc1 | > 19.5 µM (inactive) |

| SMILES | AC40 |
| --- | --- |
| CCCCNc1ccc2c3c(cccc13)C(=O)N(CCCC)C2=O | 4.11 µM |
| O=[N+]([O-])c1ccc(N2N=C(c3ccccc3)CC2c2ccccc2O)cc1 (stereo not given) | 14.1 µM |
| CC[n+]1c(/C=C/C=C/N(C(C)=O)c2ccccc2)sc2cc(OC)ccc21 | 2.73 µM |
| Cc1[nH]c2ccccc2c1/C=N/Nc1ccc([N+](=O)[O-])cc1 | 12.2 µM |
| Cc1cc(N/N=C/c2ccc([N+](=O)[O-])o2)nc2ccccc12 | 13.8 µM |
| Nc1c(C(=O)Nc2ccc(S(=O)(=O)N3CCCC3)cc2)sc2nc3cc4c(cc3cc12)CCC4 | 10.6 µM |
| COc1ccc(Cn2cc3c(-c4ccc(F)cc4)nnc-3c3cc(OC)c(OC)cc32)cc1 | 6.18 µM |
| CN1CCc2c(sc(NC(=O)c3ccc(S(=O)(=O)N4CCc5ccccc54)cc3)c2C(N)=O)C1 | 18 µM |
| C/C(=N\Nc1ncnc2sc(C)c(C)c12)c1ccccn1 | 1.55 µM |
| CC(O)CN(CC(C)O)c1ccc2c(c1)Cc1cc([N+](=O)[O-])ccc1-2 (stereo not given) | > 19.5 µM (inactive) |
| COc1ccc(/C=C/C(=O)c2ccc([N+](=O)[O-])o2)cc1OC | > 19.5 µM (inactive) |
| COc1ccc(C(=O)c2sc3nc(C)cc(-c4cccs4)c3c2N)cc1 | 14.5 µM |
| CCN1/C(=C/c2ccc3cc(C)cc(C)c3[n+]2CC)Sc2cc(C)ccc21 | 10.4 µM |
| CCN(CC)c1ccc(/C=C(/C#N)C(=O)NCc2ccccc2)o1 | 5.55 µM |
| C[n+]1c2cc(N)ccc2cc2ccc(N)cc21 | 0.522 µM and 0.378 µM |
| COC1=CC(=O)c2c(ccc3ncnc(N)c23)C1=O | > 19.5 µM (inactive) |
| CC(NC(=O)/C(C#N)=C/c1ccc([N+](=O)[O-])o1)c1ccccc1 (stereo not given) | > 19.5 µM (inactive) |
| O=C(NCc1ccccc1)c1cccc2c1C(=O)c1ccc(/C=C/c3ccccc3)cc1S2(=O)=O | 15 µM |
| O=C1c2ccccc2C(=O)C1c1ccccc1 | > 19.5 µM (inactive) |
| CCC(CO)[n+]1c(C)cc(/C=C2\Sc3ccccc3N2Cc2ccccc2)cc1C (stereo not given) | 7.28 µM |
| CCN1/C(=C/C=C/c2oc3ccc(-c4ccccc4)cc3[n+]2CC)Oc2ccc(-c3ccccc3)cc21 | 0.00627 µM |
| CCN1CCc2c(sc(NC(=O)c3ccc(S(=O)(=O)N(CC)c4ccccc4)cc3)c2C(N)=O)C1 | 6.59 µM |
| CC(=NNc1nc2ccccc2o1)c1cc2ccccc2cn1 | 8.99 µM |
| Cc1ccc2cc3c(N)c(C(=O)Nc4c(C)[nH]c(=O)[nH]c4=O)sc3nc2c1 | > 19.5 µM (inactive) |
